The target of the test is cAMP and cAMP-inhibited cGMP 3',5'-cyclic phosphodiesterase 10A (Homo sapiens, UniProt Q9Y233). As to the kind of experiment: PDE10A assay. As for the experimental part: Compounds were diluted in 20 mM HEPES/NaOH (pH 7.5), 10 mM MgCl2 and 0.05 mg/ml bovine serum albumin. A fixed amount of 2 ng/well human PDE10A enzyme was added and incubated at room temperature for 15 min under agitation. The reaction was started by the addition of the substrate cocktail [3H]cGMP (Perkin Elmer NET337001MC, S.A. 13.5 Ci/mmol) / cGMP at a final concentration of 50 nM and incubated for an additional 15 min. The reaction was stopped by the addition of 0.5 mg/well of Y-Si SPA beads. The plates were shaken for 1 h, followed by a brief centrifugation (170 g for 1 min). The radioactivity bound to the beads was estimated using a TopCount (Perkin-Elmer). For the determination of IC50 values, a four parameters logistics equation was used. pIC50 is defined as − log10(IC50).

The structures appear in SMILES notation.

On to `Cc1cc(C)c2c(NC(=O)c3c(C(=O)N4CCC4)cnn3C)nn(C)c2n1` [Roche-Dataset for PDE10A, Compound 1160], for which it took 4290 nM to reach half-maximal inhibition (IC50).
On to `CC(=O)c1ccc(NC(=O)c2nc(C3CC3)ccc2Nc2cncnc2)s1` [Roche-Dataset for PDE10A, Compound 974], for which the IC50 stood at 36 nM.
With `CCOC(=O)CCc1ccc(NC(=O)c2nc(C3CC3)cnc2Nc2cncnc2)c(C(=O)NC)c1` [US8703768, 321] the figure was 0.59 nM.
Next, `COC(=O)c1cccnc1C(=O)Nc1ccn2nc(-c3ccccc3)nc2c1` [Roche-Dataset for PDE10A, Compound 659]: 2720 nM; `O=C(NCc1ccc(F)c(F)c1)c1nc(C2CC2)cnc1Nc1cncnc1` [Roche-Dataset for PDE10A, Compound 799]: 376 nM.
For the compound `Cn1nc(-c2cccc(Cl)n2)cc1NC(=O)c1nc(C2CC2)ccc1Nc1cncnc1` [US8470820, 41], half-maximal inhibition (IC50) was put at 2.77 nM.
Consider `CC(C)n1ccc(NC(=O)c2nc(C3CC3)ccc2Nc2cncnc2)n1` [Roche-Dataset for PDE10A, Compound 692], for which 48 nM corresponded to half-maximal inhibition (IC50).
With `Cn1nc(-c2ccc(C(F)(F)F)cn2)cc1NC(=O)c1c(C(=O)N2CCC2)cnn1C` [Roche-Dataset for PDE10A, Compound 634] the figure was 26 nM; with `Cn1ncc(C(=O)O)c1C(=O)Nc1ccn2nc(-c3cccc(F)c3)nc2c1` [Roche-Dataset for PDE10A, Compound 380], 25 nM; with `Cn1nccc1NC(=O)c1c(C(=O)N2CCC2)cnn1C` [Roche-Dataset for PDE10A, Compound 1138], 1920 nM.
In the case of `Cc1c(Cl)ccc2nc(CCc3nc4ccc(Cl)c(C)n4n3)nn12` [Roche-Dataset for PDE10A, Compound 512], 472 nM corresponded to half-maximal inhibition (IC50).
The compound `Cn1cc(-c2ccccc2)nc1CCc1nc(-c2ccccc2)cc(=O)[nH]1` [Roche-Dataset for PDE10A, Compound 94] returned an IC50 of 987 nM.
Next, `CN(C)C(=O)c1nn(-c2ccccn2)cc1NC(=O)c1nc(C2CC2)ccc1Nc1cncnc1` [US8703768, 74]: 6.78 nM; `CC(C)NC(=O)c1cccc(NC(=O)c2nc(C3CC3)cnc2Nc2cncnc2)n1` [Roche-Dataset for PDE10A, Compound 928]: 8.6 nM; `CCc1cnc(C)cc1NC(=O)c1ccc2cc(-c3ccccc3)nn2c1` [Roche-Dataset for PDE10A, Compound 331]: 84 nM.
In the case of `Cc1c(-c2ccccc2)nc2n1CC[C@@H](NC(=O)c1c(C(=O)N3CCC3)cnn1C)C2` [Roche-Dataset for PDE10A, Compound 173], the IC50 is 11 nM.
With `CCOC(=O)c1cnn(C)c1C(=O)Nc1ccn2nc(N(C)C)nc2c1` [Roche-Dataset for PDE10A, Compound 549] the figure was 314 nM; with `COCCN(C)C(=O)c1cnn(C)c1C(=O)Nc1ccn2cc(-c3cccc(F)n3)nc2n1` [Roche-Dataset for PDE10A, Compound 81], 163 nM; with `O=C(Nc1cccc(N2CCCCC2=O)c1)c1nc(C2CC2)cnc1Nc1cncnc1` [Roche-Dataset for PDE10A, Compound 724], 46 nM.
As for `O=C(Nc1ccn(-c2ccncc2)n1)c1nc(C2CC2)ccc1Nc1cncnc1` [US8470820, 7], 9.7 nM corresponded to half-maximal inhibition (IC50).
With `Cn1cc(-c2ccccc2)nc1CCNC(=O)c1cccn2c(C3CC3)nnc12` [Roche-Dataset for PDE10A, Compound 92], the IC50 worked out at 43 nM.
With `CNC(=O)c1cc(F)c(F)cc1NC(=O)c1nc(C2CC2)cnc1Nc1cncnc1` [US8703768, 288] the figure was 0.74 nM; with `Cc1ccc(Nc2cncnc2)c(C(=O)Nc2ccn([C@]34C[C@H]5C[C@H](C[C@H](C5)C3)C4)n2)n1` [Roche-Dataset for PDE10A, Compound 610], 52 nM; with `Cn1ncc(C(=O)N2CCC2)c1C(=O)Nc1ccn(-c2ccccn2)n1` [Roche-Dataset for PDE10A, Compound 1095], 785 nM.
Compound `COc1cccc(-c2noc(CCN3C(=O)c4ccccc4C3=O)n2)c1` [Roche-Dataset for PDE10A, Compound 332] showed an IC50 of 10000 nM.
For `O=C(Nc1cc(-c2ccccn2)nn1Cc1ccccc1)c1nc(C2CC2)ccc1Nc1cncnc1` [US8470820, 29], 1.71 nM corresponded to half-maximal inhibition (IC50).
`CN(C)C(=O)c1nn(C)cc1C(=O)Nc1ccn2cc(-c3ccccc3)nc2n1` [Roche-Dataset for PDE10A, Compound 409] registered an IC50 of 63 nM.
For the compound `COCCN(C)C(=O)c1cnn(C)c1C(=O)Nc1ccn2cc(-c3cccc(OCCCF)c3)nc2n1` [Roche-Dataset for PDE10A, Compound 3], it took 15 nM to reach half-maximal inhibition (IC50).
The compound `NS(=O)(=O)c1ccc(CCNC(=O)c2nc(C3CC3)cnc2Nc2cncnc2)cc1` [Roche-Dataset for PDE10A, Compound 569] registered an IC50 of 300 nM.
For the compound `Cc1nc2c(C)c(C)c(CCc3nc(-c4ccccc4)cn3C)nn2c1C` [US10399985, Example 14], half-maximal inhibition (IC50) required 2.4 nM.
The compound `Cn1cc(-c2ccncc2)c(C(=O)Nc2cc(-c3ccccn3)nn2C)n1` [Roche-Dataset for PDE10A, Compound 1102] showed an IC50 of 124 nM.
With `CCOC(=O)c1cnn(C)c1C(=O)Nc1ccn2nc(-c3ccccc3OC)nc2c1` [Roche-Dataset for PDE10A, Compound 220], half-maximal inhibition (IC50) required 12 nM.
The compound `Cn1ncc(C(=O)N2CCC2)c1C(=O)Nc1ccn2nc(-c3cccc(OCCF)n3)nc2c1` [Roche-Dataset for PDE10A, Compound 66] gave an IC50 of 5.36 nM.
Next, `Cc1cc(C)n2nc(CCc3nc4c(Cl)cc(Cl)c(C)n4n3)nc2n1` [Roche-Dataset for PDE10A, Compound 1073]: 276 nM; `Cn1ncc(C(=O)O)c1C(=O)Nc1ccn2nc(-c3ccnc(F)c3)nc2c1` [Roche-Dataset for PDE10A, Compound 394]: 570 nM; `Cn1ncc(C(=O)N2CCOCC2)c1C(=O)Nc1cc2nc(N3CCCC3)nn2cn1` [Roche-Dataset for PDE10A, Compound 426]: 5 nM.
Next, `CSc1nc2cc(NC(=O)c3c(C(=O)N4CCC4)cnn3C)ccc2s1` [Roche-Dataset for PDE10A, Compound 840]: 331 nM; `Cc1c(Cl)cc(Cl)c2nc(CCc3nn(C)cc3Cl)nn12` [Roche-Dataset for PDE10A, Compound 861]: 333 nM.
With `Cc1noc(C(=O)Nc2ccc3cc(-c4ccccc4)nn3c2)c1Br` [Roche-Dataset for PDE10A, Compound 529] the figure was 18 nM.
Consider `Cc1ncc(C)n2nc(/C=C/c3nc(N4C[C@@H]5C[C@H]6CN(C(=O)OC(C)(C)C)C[C@]65C4)nn3C)nc12` [Roche-Dataset for PDE10A, Compound 1066], for which the IC50 was determined as 6130 nM.
With `Cc1c(Cl)ccc2nc(/C=C/c3nc(N4CCCC4)n(C)n3)nn12` [Roche-Dataset for PDE10A, Compound 393] the figure was 4.58 nM; with `O=C(NCCc1ccc(C(F)(F)F)cc1)c1nc(C2CC2)cnc1Nc1cncnc1` [Roche-Dataset for PDE10A, Compound 383], 250 nM; with `COCCCNC(=O)c1nc(C2CC2)cnc1Nc1cncnc1` [Roche-Dataset for PDE10A, Compound 1027], 944 nM.
`Cn1ncc(C(=O)N2CCC2)c1C(=O)Nc1cc(C2CCCCC2)n(C2CCCC2)n1` [Roche-Dataset for PDE10A, Compound 1101] yielded an IC50 of 783 nM.

For orientation: IC50 means the concentration that inhibits the measured activity by half. The low end stands for greater potency, the high end for weaker potency.

The record behind these values is BindingDB's records for doi:10.1007/s10822-022-00478-x (Roche Innovation Center Basel, F. Hoffmann-La Roche Ltd., 2022).
